Data on 18 molecules can be found in patent US8580794B2 (AbbVie Inc., priority 2009, dated 2013).

Read-outs that look alike come from different tables or passages of the source.

For the assay, the target named is GST-Bc1-2 (Homo sapiens, UniProt P10415). Nature of the assay: Time Resolved-Fluorescence Resonance Energy Transfer (TR-FRET) Bcl-2 binding assay with F-Bak peptide probe. (TR-FRET usually uses a lanthanide donor and a delayed reading to cut background.)
Setting [1] is: GST-Bcl-2 1 nM, F-Bak probe 100 nM, Tb-anti-GST 1 nM, '<' = below limit of detection, read-out: TR-FRET Bcl-2 Binding Ki.
Setting [2] is: Table 4, selected compounds of Ser. No. 12/631,404, read-out: Bcl-2 FRET Ki.
Setting [3] is: Table 5, direct comparison Z=N vs Z=C analogs, read-out: Bcl-2 FRET ki.

Sequence of GST-Bc1-2 (P10415 whole entry): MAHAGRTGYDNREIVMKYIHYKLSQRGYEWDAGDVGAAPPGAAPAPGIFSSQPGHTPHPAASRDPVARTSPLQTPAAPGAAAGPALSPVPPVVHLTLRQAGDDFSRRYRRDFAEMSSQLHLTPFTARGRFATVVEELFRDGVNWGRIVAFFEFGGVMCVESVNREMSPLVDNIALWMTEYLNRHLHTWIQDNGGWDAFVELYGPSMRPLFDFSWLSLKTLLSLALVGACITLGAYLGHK

Regarding `COCCNc1ccc(S(=O)(=O)NC(=O)c2ccc(N3CCN(CC4=C(c5ccc(Cl)cc5)CC(C)(C)CC4)CC3)cc2Oc2ccc3[nH]ccc3c2)cc1[N+](=O)[O-]` [Example 20, 4-(4-{[2-(4-chlorophenyl)-4,4-dimethylcyclohex-1-en-1-yl]methyl}piperazin-1-yl)-2-(1H-indol-5-yloxy)-N-({4-[(2-methoxyethyl)amino]-3-nitrophenyl}sulfonyl)benzamide], the Ki worked out at 0.181 nM under setting [1], 0.181 nM under setting [2] and 0.181 nM under setting [3]. Regarding `CC1(C)CC(c2ccc(Cl)cc2)=C(CN2CCN(c3ccc(C(=O)NS(=O)(=O)c4ccc(NCC5CCOCC5)c([N+](=O)[O-])c4)c(Oc4ccc5[nH]ccc5c4)c3)CC2)CO1` [Example 23, 4-(4-{[4-(4-chlorophenyl)-6,6-dimethyl-5,6-dihydro-2H-pyran-3-yl]methyl}piperazin-1-yl)-2-(1H-indol-5-yloxy)-N-({3-nitro-4-[(tetrahydro-2H-pyran-4-ylmethyl)amino]phenyl}sulfonyl)benzamide], the inhibition constant Ki is, setting by setting: under setting [1], 0.083 nM; under setting [2], 0.083 nM; under setting [3], 0.083 nM. In the case of `CC1(C)CCC(CN2CCN(c3ccc(C(=O)NS(=O)(=O)c4ccc(OCC5CCOCC5)c([N+](=O)[O-])c4)c(Oc4cnc5[nH]ccc5c4)c3)CC2)=C(c2ccc(Cl)cc2)C1` [Example 24, 4-(4-{[2-(4-chlorophenyl)-4,4-dimethylcyclohex-1-en-1-yl]methyl}piperazin-1-yl)-N-{[3-nitro-4-(tetrahydro-2H-pyran-4-ylmethoxy)phenyl]sulfonyl}-2-(1H-pyrrolo[2,3-b]pyridin-5-yloxy)benzamide], under setting [1], the inhibition constant (Ki) is under 0.01 nM. Turning to `CC1(C)CCC(CN2CCN(c3ccc(C(=O)NS(=O)(=O)c4ccc(NCC5COCCO5)c([N+](=O)[O-])c4)c(Oc4cnc5[nH]ccc5c4)c3)CC2)=C(c2ccc(Cl)cc2)C1` (stereo not shown) [Example 25, 4-(4-{[2-(4-chlorophenyl)-4,4-dimethylcyclohex-1-en-1-yl]methyl}piperazin-1-yl)-N-({4-[(1,4-dioxan-2-ylmethyl)amino]-3-nitrophenyl}sulfonyl)-2-(1H-pyrrolo[2,3-b]pyridin-5-yloxy)benzamide], the Ki under setting [1] is under 0.01 nM. `CC1(C)CCC(CN2CCN(c3ccc(C(=O)NS(=O)(=O)c4ccc(NCC(F)(F)F)c([N+](=O)[O-])c4)c(Oc4cnc5[nH]ccc5c4)c3)CC2)=C(c2ccc(Cl)cc2)C1` [Example 26, 4-(4-{[2-(4-chlorophenyl)-4,4-dimethylcyclohex-1-en-1-yl]methyl}piperazin-1-yl)-N-({3-nitro-4-[(2,2,2-trifluoroethyl)amino]phenyl}sulfonyl)-2-(1H-pyrrolo[2,3-b]pyridin-5-yloxy)benzamide]: the Ki under setting [1] was determined as 0.011 nM. For the molecule `CC1(C)CCC(CN2CCN(c3ccc(C(=O)NS(=O)(=O)c4ccc(NCCC(F)(F)F)c([N+](=O)[O-])c4)c(Oc4cnc5[nH]ccc5c4)c3)CC2)=C(c2ccc(Cl)cc2)C1` [Example 27, 4-(4-{[2-(4-chlorophenyl)-4,4-dimethylcyclohex-1-en-1-yl]methyl}piperazin-1-yl)-N-({3-nitro-4-[(3,3,3-trifluoropropyl)amino]phenyl}sulfonyl)-2-(1H-pyrrolo[2,3-b]pyridin-5-yloxy)benzamide], under setting [1], the Ki was determined as 0.134 nM.

As to `CC1(C)CCC(CN2CCN(c3ccc(C(=O)NS(=O)(=O)c4ccc(OC[C@@H]5COCCO5)c([N+](=O)[O-])c4)c(Oc4cnc5[nH]ccc5c4)c3)CC2)=C(c2ccc(Cl)cc2)C1` [Example 28, 4-(4-{[2-(4-chlorophenyl)-4,4-dimethylcyclohex-1-en-1-yl]methyl}piperazin-1-yl)-N-({4-[(2S)-1,4-dioxan-2-ylmethoxy]-3-nitrophenyl}sulfonyl)-2-(1H-pyrrolo[2,3-b]pyridin-5-yloxy)benzamide], the Ki under setting [1] was under 0.01 nM.

With `CO[C@H]1CC[C@@H](CNc2ccc(S(=O)(=O)NC(=O)c3ccc(N4CCN(CC5=C(c6ccc(Cl)cc6)CC(C)(C)CC5)CC4)cc3Oc3cnc4[nH]ccc4c3)cc2[N+](=O)[O-])CC1` [Example 29, Cis-4-(4-{[2-(4-chlorophenyl)-4,4-dimethylcyclohex-1-en-1-yl]methyl}piperazin-1-yl)-N-[(4-{[(4-methoxycyclohexyl)methyl]amino}-3-nitrophenyl)sulfonyl]-2-(1H-pyrrolo[2,3-b]pyridin-5-yloxy)benzamide], the inhibitory constant (Ki) under setting [1] is under 0.01 nM.

On to `CC1(C)CCC(CN2CCN(c3ccc(C(=O)NS(=O)(=O)c4ccc(OC[C@H]5COCCO5)c([N+](=O)[O-])c4)c(Oc4cnc5[nH]ccc5c4)c3)CC2)=C(c2ccc(Cl)cc2)C1` [Example 30, 4-(4-{[2-(4-chlorophenyl)-4,4-dimethylcyclohex-1-en-1-yl]methyl}piperazin-1-yl)-N-({4-[(2R)-1,4-dioxan-2-ylmethoxy]-3-nitrophenyl}sulfonyl)-2-(1H-pyrrolo[2,3-b]pyridin-5-yloxy)benzamide], for which the Ki under setting [1] was under 0.01 nM. As to `CC1(C)CC(c2ccc(Cl)cc2)=C(CN2CCN(c3ccc(C(=O)NS(=O)(=O)c4ccc(NCC5COCCO5)c([N+](=O)[O-])c4)c(Oc4cnc5[nH]ccc5c4)c3)CC2)CO1` (stereo not shown) [Example 31, 4-(4-{[4-(4-chlorophenyl)-6,6-dimethyl-5,6-dihydro-2H-pyran-3-yl]methyl}piperazin-1-yl)-N-({4-[(1,4-dioxan-2-ylmethyl)amino]-3-nitrophenyl}sulfonyl)-2-(1H-pyrrolo[2,3-b]pyridin-5-yloxy)benzamide], the Ki under setting [1] was under 0.01 nM. Turning to `CC1(C)CC(c2ccc(Cl)cc2)=C(CN2CCN(c3ccc(C(=O)NS(=O)(=O)c4ccc(OCC5COCCO5)c([N+](=O)[O-])c4)c(Oc4cnc5[nH]ccc5c4)c3)CC2)CO1` (stereo not shown) [Example 32, 4-(4-{[4-(4-chlorophenyl)-6,6-dimethyl-5,6-dihydro-2H-pyran-3-yl]methyl}piperazin-1-yl)-N-{[4-(1,4-dioxan-2-ylmethoxy)-3-nitrophenyl]sulfonyl}-2-(1H-pyrrolo[2,3-b]pyridin-5-yloxy)benzamide], the inhibitory constant (Ki) under setting [1] is under 0.01 nM. For the molecule `CC1(C)CC(c2ccc(Cl)cc2)=C(CN2CCN(c3ccc(C(=O)NS(=O)(=O)c4ccc(N[C@H]5CC[C@H](N6CCOCC6)CC5)c([N+](=O)[O-])c4)c(Oc4cnc5[nH]ccc5c4)c3)CC2)CO1` [Example 33, Trans-4-(4-{[4-(4-chlorophenyl)-6,6-dimethyl-5,6-dihydro-2H-pyran-3-yl]methyl}piperazin-1-yl)-N-({4-[(4-morpholin-4-ylcyclohexyl)amino]-3-nitrophenyl}sulfonyl)-2-(1H-pyrrolo[2,3-b]pyridin-5-yloxy)benzamide], the Ki under setting [1] is under 0.01 nM. Regarding `CO[C@H]1CC[C@H](CNc2ccc(S(=O)(=O)NC(=O)c3ccc(N4CCN(CC5=C(c6ccc(Cl)cc6)CC(C)(C)CC5)CC4)cc3Oc3cnc4[nH]ccc4c3)cc2[N+](=O)[O-])CC1` [Example 34, Trans-4-(4-{[2-(4-chlorophenyl)-4,4-dimethylcyclohex-1-en-1-yl]methyl}piperazin-1-yl)-N-[(4-{[(4-methoxycyclohexyl)methyl]amino}-3-nitrophenyl)sulfonyl]-2-(1H-pyrrolo[2,3-b]pyridin-5-yloxy)benzamide], under setting [1], the Ki stood at 0.01 nM. On the same count and under the same terms, to `CC1(C)CC(c2ccc(Cl)cc2)=C(CN2CCN(c3ccc(C(=O)NS(=O)(=O)c4cnc(OCC5CCOCC5)c(C#N)c4)c(Oc4cnc5[nH]ccc5c4)c3)CC2)CO1` [Example 35, 4-(4-{[4-(4-chlorophenyl)-6,6-dimethyl-5,6-dihydro-2H-pyran-3-yl]methyl}piperazin-1-yl)-N-{[5-cyano-6-(tetrahydro-2H-pyran-4-ylmethoxy)pyridin-3-yl]sulfonyl}-2-(1H-pyrrolo[2,3-b]pyridin-5-yloxy)benzamide] belongs under 0.01 nM; to `CC1(C)CCC(CN2CCN(c3ccc(C(=O)NS(=O)(=O)c4cnc(OCC5CCOCC5)c(C#N)c4)c(Oc4cnc5[nH]ccc5c4)c3)CC2)=C(c2ccc(Cl)cc2)C1` [Example 36, 4-(4-{[2-(4-chlorophenyl)-4,4-dimethylcyclohex-1-en-1-yl]methyl}piperazin-1-yl)-N-{[5-cyano-6-(tetrahydro-2H-pyran-4-ylmethoxy)pyridin-3-yl]sulfonyl}-2-(1H-pyrrolo[2,3-b]pyridin-5-yloxy)benzamide], 0.017 nM; to `CC1(C)CCC(CN2CCN(c3ccc(C(=O)NS(=O)(=O)c4ccc(OCC5(F)CCOCC5)c([N+](=O)[O-])c4)c(Oc4cnc5[nH]ccc5c4)c3)CC2)=C(c2ccc(Cl)cc2)C1` [Example 37, 4-(4-{[2-(4-chlorophenyl)-4,4-dimethylcyclohex-1-en-1-yl]methyl}piperazin-1-yl)-N-({4-[(4-fluorotetrahydro-2H-pyran-4-yl)methoxy]-3-nitrophenyl}sulfonyl)-2-(1H-pyrrolo[2,3-b]pyridin-5-yloxy)benzamide], under 0.01 nM.

`CC1(C)CCC(CN2CCN(c3ccc(C(=O)NS(=O)(=O)c4ccc(OCC5CCOCC5)c(C(N)=O)c4)c(Oc4cnc5[nH]ccc5c4)c3)CC2)=C(c2ccc(Cl)cc2)C1` [Example 38, N-{[3-(aminocarbonyl)-4-(tetrahydro-2H-pyran-4-ylmethoxy)phenyl]sulfonyl}-4-(4-{[2-(4-chlorophenyl)-4,4-dimethylcyclohex-1-en-1-yl]methyl}piperazin-1-yl)-2-(1H-pyrrolo[2,3-b]pyridin-5-yloxy)benzamide]: under setting [1], the inhibition constant Ki was determined as 0.3 nM. `CC1(C)CCC(CN2CCN(c3ccc(C(=O)NS(=O)(=O)c4ccc(N[C@H]5CC[C@@H](N6CCOCC6)CC5)c([N+](=O)[O-])c4)c(Oc4cnc5[nH]ccc5c4)c3)CC2)=C(c2ccc(Cl)cc2)C1` [Example 39, Cis-4-(4-{[2-(4-chlorophenyl)-4,4-dimethylcyclohex-1-en-1-yl]methyl}piperazin-1-yl)-N-({4-[(4-morpholin-4-ylcyclohexyl)amino]-3-nitrophenyl}sulfonyl)-2-(1H-pyrrolo[2,3-b]pyridin-5-yloxy)benzamide]: the Ki under setting [1] worked out at 0.012 nM.

By Ki is commonly meant the equilibrium dissociation constant of an inhibitor or competing ligand from its target.
